Among the data in ChEMBL document CHEMBL3886557, “Compounds as inhibitors of diacylglycerol O-acyltransferase type 1 enzyme” (2016) are IC50 values, retold here.

Usually IC50 stands for the concentration at which inhibition is half-maximal.

For experiment [1], the target named is T1, Diacylglycerol O-acyltransferase 1 (Mus musculus, UniProt Q9Z2A7).
T1 sequence (Q9Z2A7 whole entry): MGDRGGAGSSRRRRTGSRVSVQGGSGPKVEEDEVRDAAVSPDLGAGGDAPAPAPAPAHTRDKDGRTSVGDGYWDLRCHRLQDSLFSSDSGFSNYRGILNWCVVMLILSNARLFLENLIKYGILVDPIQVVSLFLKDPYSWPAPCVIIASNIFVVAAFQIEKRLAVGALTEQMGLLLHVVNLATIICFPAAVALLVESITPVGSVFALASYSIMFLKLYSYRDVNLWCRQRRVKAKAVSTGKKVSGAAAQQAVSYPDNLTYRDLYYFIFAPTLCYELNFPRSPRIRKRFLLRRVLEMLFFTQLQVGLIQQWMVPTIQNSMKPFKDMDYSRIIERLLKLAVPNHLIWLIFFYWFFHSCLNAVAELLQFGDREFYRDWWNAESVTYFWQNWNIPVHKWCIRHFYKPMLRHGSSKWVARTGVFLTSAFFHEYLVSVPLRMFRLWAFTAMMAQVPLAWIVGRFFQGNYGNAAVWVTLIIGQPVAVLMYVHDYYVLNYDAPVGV
Nature of the experiment: Inhibition Assay: Â Assay buffer [20 mM HEPES (pH 7.4), 100 mM MgCl2 and 0.04% bovine serum albumin (BSA)] containing 500 uM of enzyme substrate (didecanoyl glycerol) and 7.5 uM radiolabeled acyl-CoA substrate ([14C]decanoyl-CoA) was added to each well of a phospholipid-coated radiometric assay plate. In kind it is microsomes, Liver.

Experiment [2] has as its target T2, Diacylglycerol O-acyltransferase 1 (Homo sapiens, UniProt O75907).
T2 sequence (O75907 whole entry): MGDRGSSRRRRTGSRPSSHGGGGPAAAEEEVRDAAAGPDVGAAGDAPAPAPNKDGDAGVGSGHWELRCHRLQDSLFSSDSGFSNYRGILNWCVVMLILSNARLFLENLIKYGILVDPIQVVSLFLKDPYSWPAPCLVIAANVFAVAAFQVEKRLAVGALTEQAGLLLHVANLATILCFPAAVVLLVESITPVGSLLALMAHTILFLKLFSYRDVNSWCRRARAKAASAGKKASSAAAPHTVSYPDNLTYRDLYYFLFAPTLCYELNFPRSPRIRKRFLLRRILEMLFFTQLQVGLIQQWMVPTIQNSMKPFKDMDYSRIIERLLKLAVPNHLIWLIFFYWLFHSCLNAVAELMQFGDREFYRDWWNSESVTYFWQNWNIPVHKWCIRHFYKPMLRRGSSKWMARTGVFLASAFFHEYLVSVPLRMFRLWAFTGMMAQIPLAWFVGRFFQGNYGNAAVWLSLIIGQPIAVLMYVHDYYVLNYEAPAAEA
It counts as tissue-based, Liver.

In the case of `O=C(O)C[C@H]1CC[C@H](c2ccc(-c3cn4cc(C(=O)NCc5ccc(F)c(Cl)c5)nc4s3)cc2)CC1`, the IC50 is below 25 nM in experiment [1] and below 10 nM in experiment [2].
Consider `O=C(O)C[C@H]1CC[C@H](c2ccc(-c3cn4cc(C(=O)Nc5cccc(Cl)c5)nc4s3)cc2)CC1`, for which the results for the IC50 in experiment [1] and in experiment [2] were below 150 nM and below 10 nM, respectively.
On to `O=C(O)CC1CCC(c2ccc(-c3ccc4nc(C(=O)NCc5c(F)cccc5F)cn4c3)cc2)CC1` (stereo unspecified), for which the IC50 is below 75 nM in experiment [1] and below 25 nM in experiment [2].
For `O=C(O)C[C@H]1CC[C@H](c2ccc(-c3cn4cc(C(=O)NCc5c(Cl)cccc5Cl)nc4s3)cc2)CC1`, the half-maximal inhibitory concentration (IC50) in experiment [1] and in experiment [2] was below 10 nM each time.
For the compound `O=C(O)CC1CCC(c2ccc(-c3ccc4nc(C(=O)NCc5c(F)cccc5Cl)cn4c3)cc2)CC1` (stereo unspecified), the half-inhibitory concentration (IC50) in experiment [1] is below 50 nM; in experiment [2], below 10 nM.
Taken in the same sequence, the figures for `O=C(O)CC1CCC(c2ccc(-c3ccc4nc(C(=O)NCc5c(Cl)cccc5C(F)(F)F)cn4c3)cc2)CC1` (stereo unspecified) were below 10 nM and below 10 nM.
`O=C(O)C[C@H]1CC[C@H](c2ccc(-c3cn4cc(C(=O)NCc5c(F)cccc5Cl)nc4s3)cc2)CC1`: the 50% inhibitory concentration (IC50) in experiment [1] is below 25 nM; in experiment [2], below 10 nM.
Take `O=C(O)CC1CCC(c2ccc(-c3ccc4nc(C(=O)NCc5c(Cl)cccc5Cl)cn4c3)cc2)CC1` (stereo unspecified): the IC50 in experiment [1] was below 50 nM; in experiment [2] it was below 10 nM.
In the case of `O=C(O)C[C@H]1CC[C@H](c2ccc(-c3cn4cc(C(=O)NCc5c(F)cc(Cl)cc5F)nc4s3)cc2)CC1`, the half-inhibitory concentration (IC50) in experiment [1] and in experiment [2] was below 10 nM throughout.
As to `O=C(O)CC1CCC(c2ccc(-c3ccc4nc(C(=O)NC5(c6cc(F)ccc6F)CC5)cn4c3)cc2)CC1` (stereo unspecified), the IC50 in experiment [1] and in experiment [2] was below 10 nM in each case.
With `O=C(O)C[C@H]1CC[C@H](c2ccc(-c3cn4cc(C(=O)NCc5ccc(OC(F)(F)F)c(Cl)c5)nc4s3)cc2)CC1`, the results for the IC50 in experiment [1] and in experiment [2] were below 200 nM and below 225 nM, respectively.
As to `O=C(O)C[C@H]1CC[C@H](c2ccc(-c3cn4cc(C(=O)NCc5c(F)cccc5F)nc4s3)cc2)CC1`, the IC50 in experiment [1] and in experiment [2] was below 25 nM in each case.
As to `O=C(O)CC1CCC(c2ccc(-c3cn4cc(C(=O)Nc5ccc(F)c(Cl)c5)nc4s3)cc2)CC1` (stereo unspecified), the half-inhibitory concentration (IC50) in experiment [1] was below 100 nM; in experiment [2], below 10 nM.
